Test results reported in ChEMBL document CHEMBL1201862, “PubChem BioAssay data set” (2004).
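Step 1: Grow cells in 96-well plates. Step 2: Expose to compound for 48 hours at 5 concentrations. Step 3: Interpolate endpoints linearly; if unreached, use highest concentration. Here, GI50 denotes the concentration required for 50% inhibition of growth.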 Active and inactive are the calls of the source. Cut-off read from the data, not from the text of the source: active = GI50 up to about 1.1 µM and inactive = higher.

Columns and labels:
Test in all cases: NCI anticancer screen, dose series, 48 h
786-0 = test system: 786-0
IGROV-1 = test system: IGROV-1
CAKI-1 = test system: CAKI-1
HCC 2998 = test system: HCC 2998
RPMI-8226 = test system: RPMI-8226
LOX IMVI = test system: LOX IMVI
HOP-62 = test system: HOP-62
NCI-H522 = test system: NCI-H522
HCT-116 = test system: HCT-116
EKVX = test system: EKVX
OVCAR-8 = test system: OVCAR-8
HT-29 = test system: HT-29
OVCAR-4 = test system: OVCAR-4
M14 = test system: M14
NCI-H226 = test system: NCI-H226
OVCAR-5 = test system: OVCAR-5
SK-OV-3 = test system: SK-OV-3

Measured: GI50

CN(C)C(=O)CC(C(=O)O)c1c[nH]c2ccccc12 (stereo unspecified)
inactive: 786-0 > 100 µM | IGROV-1 > 100 µM | CAKI-1 > 100 µM | HCC 2998 > 100 µM | RPMI-8226 > 100 µM | LOX IMVI > 100 µM | HOP-62 > 100 µM | NCI-H522 > 100 µM | HCT-116 > 100 µM | EKVX > 100 µM | OVCAR-8 > 100 µM | HT-29 > 100 µM | OVCAR-4 > 100 µM | M14 > 100 µM

Cc1ccc(C)c(NC(=O)CCc2n[nH]c(=S)o2)c1
inactive: 786-0 > 100 µM | IGROV-1 > 100 µM | CAKI-1 > 100 µM | HCC 2998 > 100 µM | LOX IMVI > 100 µM | HOP-62 > 100 µM | NCI-H522 > 100 µM | HCT-116 > 100 µM | EKVX > 100 µM | OVCAR-8 > 100 µM | HT-29 > 100 µM | NCI-H226 > 100 µM | OVCAR-5 > 100 µM | OVCAR-4 > 100 µM | M14 > 100 µM

O=C(O)C1=NN=C(C(=O)O)NN1
inactive: 786-0 > 100 µM | IGROV-1 > 100 µM | CAKI-1 > 100 µM | RPMI-8226 43.9 µM | LOX IMVI > 100 µM | NCI-H522 > 100 µM | HCT-116 > 100 µM | SK-OV-3 37.9 µM | EKVX > 100 µM | OVCAR-8 > 100 µM | HT-29 > 100 µM | NCI-H226 > 100 µM | OVCAR-5 > 100 µM | OVCAR-4 > 100 µM | M14 > 100 µM

COc1cccc(NC(=O)CC(=O)N2N=C(n3ccc4ccccc43)CC2c2ccccc2)c1 (stereo unspecified)
inactive: 786-0 > 100 µM | IGROV-1 > 100 µM | HCC 2998 > 100 µM | RPMI-8226 > 100 µM | LOX IMVI > 100 µM | HOP-62 > 100 µM | NCI-H522 > 100 µM | HCT-116 > 100 µM | SK-OV-3 > 100 µM | EKVX > 100 µM | OVCAR-8 > 100 µM | HT-29 > 100 µM | OVCAR-5 > 100 µM | OVCAR-4 > 100 µM | M14 > 100 µM

CC(=O)N1CC(=O)NC1=S
inactive: 786-0 > 100 µM | IGROV-1 > 100 µM | CAKI-1 > 100 µM | RPMI-8226 > 100 µM | LOX IMVI > 100 µM | HOP-62 > 100 µM | NCI-H522 > 100 µM | HCT-116 > 100 µM | SK-OV-3 > 100 µM | EKVX > 100 µM | OVCAR-8 > 100 µM | HT-29 > 100 µM | NCI-H226 > 100 µM | OVCAR-5 > 100 µM | OVCAR-4 > 100 µM | M14 > 100 µM

COc1ccc2occ(CCC(=O)O)c2c1
inactive: 786-0 > 100 µM | IGROV-1 > 100 µM | CAKI-1 > 100 µM | HCC 2998 > 100 µM | RPMI-8226 > 100 µM | LOX IMVI > 100 µM | HOP-62 > 100 µM | HCT-116 > 100 µM | SK-OV-3 > 100 µM | EKVX > 100 µM | OVCAR-8 > 100 µM | HT-29 > 100 µM | OVCAR-4 > 100 µM | M14 > 100 µM

CCOC(OCC)c1ccc(/C=C/c2cc(OC)c(OC)c(OC)c2)cc1
inactive: 786-0 23.3 µM | IGROV-1 32.7 µM | CAKI-1 24.9 µM | RPMI-8226 17.1 µM | LOX IMVI 11.1 µM | HOP-62 19.8 µM | NCI-H522 25.2 µM | HCT-116 17 µM | EKVX 33 µM | OVCAR-8 26.9 µM | HT-29 16.9 µM | NCI-H226 30.4 µM | OVCAR-5 11.4 µM | OVCAR-4 22.3 µM | M14 17.7 µM

O=C(/C=C/c1ccc([N+](=O)[O-])o1)N1CCN(Cc2ccccc2)CC1
inactive: 786-0 12.7 µM | IGROV-1 16.5 µM | CAKI-1 8.17 µM | HCC 2998 15.7 µM | RPMI-8226 10.5 µM | LOX IMVI 12.6 µM | HOP-62 20.2 µM | NCI-H522 2.82 µM | HCT-116 10.8 µM | SK-OV-3 43.5 µM | EKVX 22.4 µM | OVCAR-8 12.2 µM | HT-29 5.81 µM | OVCAR-5 17.3 µM | OVCAR-4 15.6 µM | M14 4.66 µM

Nc1nc2c(c(=O)[nH]1)NC(CO)CN2 (stereo unspecified)
inactive: 786-0 > 100 µM | IGROV-1 > 100 µM | RPMI-8226 > 100 µM | LOX IMVI 19.2 µM | HOP-62 > 100 µM | NCI-H522 > 100 µM | HCT-116 32.7 µM | SK-OV-3 > 100 µM | EKVX > 100 µM | OVCAR-8 71 µM | HT-29 44.2 µM | NCI-H226 > 100 µM | M14 > 100 µM

CC1Cc2c(N)nc(NN)nc2NC1=O (stereo unspecified)
inactive: 786-0 > 100 µM | IGROV-1 > 100 µM | RPMI-8226 > 100 µM | LOX IMVI > 100 µM | HOP-62 > 100 µM | NCI-H522 > 100 µM | HCT-116 > 100 µM | SK-OV-3 > 100 µM | EKVX > 100 µM | OVCAR-8 > 100 µM | HT-29 > 100 µM | NCI-H226 > 100 µM | M14 > 100 µM
